From patent publication US6461997B1, “Triazole sulfones having herbicidal activity” (Monsanto Technology LLC, priority 1999, dated 2002)

Legend:
[1] = tested on: AMARE (redroot pigweed); assay: Pre-emergence herbicidal activity, warm season; format: in vivo, Amaranthus retroflexus; details: GR80 = lowest tested rate (300, 100, 30, 10 g/ha) with 80% or greater inhibition; approx. 14 days after treating; 30/21° C.
In short: (§1)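 Seeds sown in sterilised fertilised topsoil received surface-applied compound in 50:50 acetone/water, typically at 300, 100, 30 and 10 g/ha, then greenhouse-grown at 30/21° C (warm-season species) or 18/13° C (cool-season species). Percent inhibition versus untreated plants was scored at about 14 days, giving GR80; an asterisk marks activity short of 80% at the top rate.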

[2] = tested on: SORVU (shattercane); assay: Pre-emergence herbicidal activity, warm season; format: in vivo, Sorghum vulgare; details: GR80 = lowest tested rate (300, 100, 30, 10 g/ha) with 80% or greater inhibition; approx. 14 days after treating; 30/21° C.
In short: as §1

[3] = tested on: DIGSA (large crabgrass); assay: Pre-emergence herbicidal activity, warm season; format: in vivo, Digitaria sanguinalis; details: GR80 = lowest tested rate (300, 100, 30, 10 g/ha) with 80% or greater inhibition; approx. 14 days after treating; 30/21° C.
In short: as §1

[4] = tested on: CHEAL (common lambsquarters); assay: Pre-plant incorporated (PPI) herbicidal activity, warm season; format: in vivo, Chenopodium album; details: for Percent inhibition CHEAL: PPI application; for PPI activity (GR80) CHEAL: pre-plant incorporated, GR80 = lowest tested rate with 80% or greater inhibition, approx. 14 days after treating, 30/21° C.
In short: (§2)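 Compound-laden cover soil (organic solvent spray, mixed in) over seeds; 0.64 cm overhead water initially. Evaluated ~14 days: % inhibition relative to untreated.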

[5] = tested on: PANMI (wild proso millet); assay: as above; format: in vivo, Panicum miliaceum; details: for PPI activity GR80, PANMI: pre-plant incorporated, lowest tested rate with 80% or greater inhibition, about 14 days
In short: as §2

[6] = tested on: SETFA (giant foxtail); assay: as above; format: in vivo, Setaria faberi; details: for PPI activity GR80, SETFA: pre-plant incorporated, lowest tested rate with 80% or greater inhibition, about 14 days
In short: as §2

[7] = tested on: BRAPP (broadleaf signalgrass); assay: as above; format: in vivo, Brachiaria platyphylla; details: for PPI activity GR80, BRAPP: pre-plant incorporated, lowest tested rate with 80% or greater inhibition, about 14 days
In short: as §2

[8] = tested on: SINAR (wild mustard); assay: Pre-plant incorporated (PPI) herbicidal activity, cool season; format: in vivo, Sinapis arvensis; details: for PPI activity GR80, SINAR: pre-plant incorporated, lowest tested rate with 80% or greater inhibition, about 14 days
In short: as §2

[9] = tested on: AGRRE (quackgrass (seedling)); assay: as above; format: in vivo, Elymus repens; details: for PPI activity GR80, AGRRE: pre-plant incorporated, lowest tested rate with 80% or greater inhibition, about 14 days
In short: as §2

[10] = tested on: wheat (TRZAW); assay: Selectivity test, PPI, cool season crop; format: in vivo, Triticum aestivum; details: PPI application
In short: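 Pre-plant incorporated: compound in organic solvent sprayed onto cover soil, mixed and laid over seeds; untreated soil for controls. Greenhouse after treatment: warm season 30/21° C., cool season 18/13° C. day/night. Percent inhibition versus untreated plants scored about 14 days after planting.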

[11] = weed, PPI application, 100 g/ha
[12] = weed, PPI application, 300 g/ha
[13] = weed, PPI application, 900 g/ha

CCN(CC)C(=O)n1cnc(S(=O)(=O)C(F)(F)C(F)F)n1 [Example 16]
Pre-emergence activity (GR80) AMARE [1]: 300 g/ha | Pre-emergence activity (GR80) SORVU [2]: 100 g/ha | Pre-emergence activity (GR80) DIGSA [3]: 30 g/ha | Percent inhibition CHEAL ([4]; 10 g/ha): 100% | Percent inhibition CHEAL ([4]; 30 g/ha): 100% | Percent inhibition CHEAL ([4]; 100 g/ha): 100% | Percent inhibition CHEAL ([4]; 300 g/ha): 100% | Percent inhibition CHEAL ([4]; 900 g/ha): 100% | PPI activity (GR80) CHEAL [4]: 30 g/ha | Percent inhibition PANMI ([5]; PPI application, 10 g/ha): 100% | Percent inhibition PANMI ([5]; PPI application, 30 g/ha): 100% | Percent inhibition PANMI ([5]; PPI application, 100 g/ha): 100% | Percent inhibition PANMI ([5]; PPI application, 300 g/ha): 100% | Percent inhibition PANMI ([5]; PPI application, 900 g/ha): 100% | PPI activity GR80, PANMI [5]: 30 g/ha | Percent inhibition SETFA ([6]; PPI application, 10 g/ha): 80% | Percent inhibition SETFA ([6]; PPI application, 30 g/ha): 80% | Percent inhibition SETFA ([6]; PPI application, 100 g/ha): 100% | Percent inhibition SETFA ([6]; PPI application, 300 g/ha): 100% | Percent inhibition SETFA ([6]; PPI application, 900 g/ha): 100% | PPI activity GR80, SETFA [6]: 10 g/ha | Percent inhibition BRAPP ([7]; PPI application, 10 g/ha): 20% | Percent inhibition BRAPP ([7]; PPI application, 30 g/ha): 60% | Percent inhibition BRAPP ([7]; PPI application, 100 g/ha): 100% | Percent inhibition BRAPP ([7]; PPI application, 300 g/ha): 100% | Percent inhibition BRAPP ([7]; PPI application, 900 g/ha): 100% | PPI activity GR80, BRAPP [7]: 10 g/ha | PPI activity GR80, SINAR [8]: 10 g/ha | Percent inhibition SINAR ([8]; weed, PPI application, 10 g/ha): 0% | Percent inhibition SINAR ([8]; weed, PPI application, 30 g/ha): 50% | Percent inhibition SINAR [8, 11]: 100% | Percent inhibition SINAR [8, 12]: 100% | Percent inhibition SINAR [8, 13]: 100% | PPI activity GR80, AGRRE [9]: 300 g/ha | Percent inhibition AGRRE ([9]; weed, PPI application, 10 g/ha): 0% | Percent inhibition AGRRE ([9]; weed, PPI application, 30 g/ha): 0% | Percent inhibition AGRRE [9, 11]: 0% | Percent inhibition AGRRE [9, 12]: 20% | Percent inhibition AGRRE [9, 13]: 70% | Percent inhibition TRZAW ([10]; 10 g/ha): 0% | Percent inhibition TRZAW ([10]; 30 g/ha): 0% | Percent inhibition TRZAW ([10]; 100 g/ha): 10% | Percent inhibition TRZAW ([10]; 300 g/ha): 10% | Percent inhibition TRZAW ([10]; 900 g/ha): 20%

C=CCC(F)(F)S(=O)(=O)c1ncn(C(=O)N(CC)CC)n1 [Example 17, 1-(N,N-diethylcarbamoyl)-3-[(1,1-difluoro-3-butenyl)sulfonyl]-1,2,4-triazole]
Pre-emergence activity (GR80) AMARE [1]: 300 g/ha | Pre-emergence activity (GR80) SORVU [2]: 100 g/ha | Pre-emergence activity (GR80) DIGSA [3]: 100 g/ha | PPI activity (GR80) CHEAL [4]: 300 g/ha | inhibition at 10 g/ha ([5]; Panicum miliaceum, PPI application, 10 g/ha, read-out: Percent inhibition PANMI): 60% | inhibition at 30 g/ha ([5]; Panicum miliaceum, PPI application, 30 g/ha, read-out: Percent inhibition PANMI): 100% | inhibition at 100 g/ha ([5]; Panicum miliaceum, PPI application, 100 g/ha, read-out: Percent inhibition PANMI): 100% | inhibition at 300 g/ha ([5]; Panicum miliaceum, PPI application, 300 g/ha, read-out: Percent inhibition PANMI): 100% | inhibition at 900 g/ha ([5]; Panicum miliaceum, PPI application, 900 g/ha, read-out: Percent inhibition PANMI): 100% | PPI activity GR80, PANMI [5]: 10 g/ha | inhibition at 10 g/ha ([6]; Setaria faberi, PPI application, 10 g/ha, read-out: Percent inhibition SETFA): 100% | inhibition at 30 g/ha ([6]; Setaria faberi, PPI application, 30 g/ha, read-out: Percent inhibition SETFA): 100% | inhibition at 100 g/ha ([6]; Setaria faberi, PPI application, 100 g/ha, read-out: Percent inhibition SETFA): 100% | inhibition at 300 g/ha ([6]; Setaria faberi, PPI application, 300 g/ha, read-out: Percent inhibition SETFA): 100% | inhibition at 900 g/ha ([6]; Setaria faberi, PPI application, 900 g/ha, read-out: Percent inhibition SETFA): 100% | PPI activity GR80, SETFA [6]: 10 g/ha | inhibition at 10 g/ha ([7]; Urochloa platyphylla, PPI application, 10 g/ha, read-out: Percent inhibition BRAPP): 0% | inhibition at 30 g/ha ([7]; Urochloa platyphylla, PPI application, 30 g/ha, read-out: Percent inhibition BRAPP): 0% | inhibition at 100 g/ha ([7]; Urochloa platyphylla, PPI application, 100 g/ha, read-out: Percent inhibition BRAPP): 50% | inhibition at 300 g/ha ([7]; Urochloa platyphylla, PPI application, 300 g/ha, read-out: Percent inhibition BRAPP): 100% | inhibition at 900 g/ha ([7]; Urochloa platyphylla, PPI application, 900 g/ha, read-out: Percent inhibition BRAPP): 100% | PPI activity GR80, BRAPP [7]: 100 g/ha | inhibition at 10 g/ha ([8]; Brassica, weed, PPI application, 10 g/ha, read-out: Percent inhibition SINAR): 70% | inhibition at 30 g/ha ([8]; Brassica, weed, PPI application, 30 g/ha, read-out: Percent inhibition SINAR): 70% | inhibition at 100 g/ha ([8]; Brassica, weed, PPI application, 100 g/ha, read-out: Percent inhibition SINAR): 90% | inhibition at 300 g/ha ([8]; Brassica, weed, PPI application, 300 g/ha, read-out: Percent inhibition SINAR): 100% | inhibition at 900 g/ha ([8]; Brassica, weed, PPI application, 900 g/ha, read-out: Percent inhibition SINAR): 100% | PPI activity GR80, SINAR [8]: 30 g/ha | inhibition at 10 g/ha ([9]; Elymus repens, weed, PPI application, 10 g/ha, read-out: Percent inhibition AGRRE): 0% | inhibition at 30 g/ha ([9]; Elymus repens, weed, PPI application, 30 g/ha, read-out: Percent inhibition AGRRE): 40% | inhibition at 100 g/ha ([9]; Elymus repens, weed, PPI application, 100 g/ha, read-out: Percent inhibition AGRRE): 50% | inhibition at 300 g/ha ([9]; Elymus repens, weed, PPI application, 300 g/ha, read-out: Percent inhibition AGRRE): 60% | inhibition at 900 g/ha ([9]; Elymus repens, weed, PPI application, 900 g/ha, read-out: Percent inhibition AGRRE): 70% | PPI activity GR80, AGRRE [9]: 100 g/ha | inhibition at 10 g/ha ([10]; Triticum aestivum, 10 g/ha, read-out: Percent inhibition TRZAW): 0% | inhibition at 30 g/ha ([10]; Triticum aestivum, 30 g/ha, read-out: Percent inhibition TRZAW): 0% | inhibition at 100 g/ha ([10]; Triticum aestivum, 100 g/ha, read-out: Percent inhibition TRZAW): 10% | inhibition at 300 g/ha ([10]; Triticum aestivum, 300 g/ha, read-out: Percent inhibition TRZAW): 30% | inhibition at 900 g/ha ([10]; Triticum aestivum, 900 g/ha, read-out: Percent inhibition TRZAW): 60%
